Measurements: US20060057673A1, “Epitope analogs” (priority 2004, published 2006)
Where a SMILES comes first, the peptide text is derived from it. [ ]: non-standard residue; d: D form. Cha = N[C@@H](CC1CCCCC1)C(=O)O

What was measured:
HLA-A*0201 [1] = target: T1, HLA-A*0201 (Homo sapiens, UniProt P04439, D140Y/D185E/D98H/E176V/E277Q/G131W/G231S/I119V/I121R/I166T/I218V/L300P/L318F/N151K/N90K/P208A/P217A/Q86G/Q94H/R138H/R169H/T345S); test: Peptide binding using T2 cells; parameters: endogenous in cells; host or cells: T2 cells; settings: T2 cells pulsed overnight at 37° C.; peptide concentration giving 50% of saturation signal; N/B printed, not defined
HLA-A*0201 [2] = target: T1, HLA-A*0201; test: iTopia binding assay (% binding); settings: % binding compared to positive control melan-A26-35 A27L
Description: Avidin-coated microtiter plates containing class I monomer loaded with a so-called placeholder peptide were used to evaluate peptide binding, affinity and off-rate. The monomer-coated plates were supplied as part of the iTopia Epitope Discovery System Kit (Beckman Ciulter, Inc., San Diego, Calif., USA). Assay buffers, anti-MHC-FITC mAb and beta2-microglobulin and control peptides were also supplied with the kits.
This assay measures the ability of individual peptides to bind HLA molecules under standardized optimal binding conditions. Monomer-coated plates were first stripped, releasing the placeholder peptide and leaving only the MHC heavy chain bound to the plate. Test peptides were then introduced under optimal folding conditions, along with the anti-MRC-FITC mAb. Plates were incubated for 18hrs at 21° C. The anti-MHC-FITC mAb binds preferentially to a refolded MHC complex. Therefore, the fluorescence intensity resulted from each peptide was related to the peptide's ability to form complex with MHC molecule. Each peptide's binding was evaluated relative to the positive control peptide provided in the kit, and the results were expressed ‘% binding’.

[3] = test system: target cells loaded with native PRAME425-433 peptide; test: In vivo cytotoxicity against native PRAME peptide coated splenocytes (CFSE); parameters: species or system HHD transgenic mice; settings: plasmid prime, peptide boost

**Q.** With `CC[C@H](C)[C@H](NC(=O)[C@H](CCCCN)NC(=O)[C@H](CCC(=O)O)NC(=O)[C@H](CO)NC(=O)[C@H](Cc1cccc2ccccc12)NC(=O)[C@@H](N)CCCCN)C(=O)N[C@@H](Cc1ccccc1)C(=O)N[C@@H](Cc1ccc(O)cc1)C(=O)N[C@H](C(=O)O)C(C)C` [SSX2 41-49 (A42(Nal-1)), KNal-1SEKIFYV] as the molecule, how does the “Half-maximal Binding (mM)” value (HLA-A*0201 [1]) read?
**A.** The value was “N/B”.

**Q.** Which “Half-maximal Binding (mM)” value (HLA-A*0201 [1]) does the source give for `CC[C@H](C)[C@H](NC(=O)[C@H](CCCCN)NC(=O)[C@H](CCC(=O)O)NC(=O)[C@H](CO)NC(=O)[C@H](C)NC(=O)[C@@H](N)CC1CCCCC1)C(=O)N[C@@H](Cc1ccccc1)C(=O)N[C@@H](Cc1ccc(O)cc1)C(=O)N[C@H](C(=O)O)C(C)C` [SSX2 41-49 (K41(Cha))] (H-[Cha]ASEKIFYV-OH) here?
**A.** The value was “N/B”.

**Q.** How did the “% binding relative to native PRAME425-433” value (HLA-A*0201 [2]) turn out when “Phe P1 analog: PRAME425-433 (SLLQHLIGL) analog, Phe for the Ser at the P1 position (FLLQHLIGL)” was run?
**A.** The value was “exceeded that range on the high side”.

**Q.** What about the “In vivo cytotoxicity against native PRAME epitope” value [3] of the same molecule?
**A.** Its value is “capable of expanding the immunity against the native epitope”.
